Read-outs that look alike come from different tables or passages of the source.
How the values were obtained:
[1] = test system: HeLa cervical adenocarcinoma cells; assay: bipolar spindle formation in HeLa cells; format: cell-based, human; conditions: for IC50: read-out: Bipolar spindle formation IC50; for inhibitory activity in the cell-based assay: HeLa bipolar spindle formation
Description: (§1) Biochemical- and cell-based assays were used to evaluate the inhibitory activities of the STLC analogs. Using a commercially available assay from Cytoskeleton, Inc, analogs were assayed for their ability to block the microtubule-activated ATPase activity of recombinant human EG5 motor domain. In parallel, HeLa cells were treated for four hours with a range of concentrations, and then fixed, stained for microtubules, and mitotic cells were scored for spindle bipolarity.

OVCAR-5 = conditions: Ovarian OVCAR-5; data previously determined; cited from earlier work
NCI-H522 = conditions: Non-Small Cell Lung NCI-H522; data previously determined; cited from earlier work
UO-31 = conditions: Renal UO-31; data previously determined; cited from earlier work
SK-OV-3 = conditions: Ovarian SK-OV-3; data previously determined; cited from earlier work
HCT-116 = conditions: Colon HCT-116; data previously determined; cited from earlier work
U251 = conditions: Central Nervous System U251; data previously determined; cited from earlier work
NCI-H226 = conditions: Non-Small Cell Lung NCI-H226; data previously determined; cited from earlier work
SF-295 = conditions: Central Nervous System SF-295; data previously determined; cited from earlier work
[2] = biological target: T1, recombinant human EG5 motor domain (Homo sapiens, UniProt P52732); assay: microtubule-activated Eg5 ATPase assay (Cytoskeleton, Inc); format: biochemical; conditions: for inhibitory activity in the biochemical assay: Eg5 ATPase assay; for IC50: microtubule-activated ATPase activity of recombinant human EG5 motor domain
T1 construct: recombinant human EG5 motor domain; purchased Cytoskeleton, Inc
T1 sequence (P52732 18-359 limits assumed): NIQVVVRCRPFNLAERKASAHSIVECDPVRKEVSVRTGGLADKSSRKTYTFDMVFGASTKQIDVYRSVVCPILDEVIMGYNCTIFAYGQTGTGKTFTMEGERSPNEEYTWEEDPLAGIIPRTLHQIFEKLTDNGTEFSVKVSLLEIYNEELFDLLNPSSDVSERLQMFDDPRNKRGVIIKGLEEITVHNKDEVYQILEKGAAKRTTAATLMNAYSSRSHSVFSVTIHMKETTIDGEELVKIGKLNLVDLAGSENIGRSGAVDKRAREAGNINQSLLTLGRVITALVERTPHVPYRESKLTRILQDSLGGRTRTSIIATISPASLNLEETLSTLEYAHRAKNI
Description: as §1

[3] = Homo sapiens, HeLa cells treated with analog for 4 hours, scored for bipolar vs monopolar spindle formation

Row | Compound | IC50 [1, 3] | inhibitory activity in the biochemical assay [2] | IC50 [2] | inhibitory activity in the cell-based assay [1] | also measured
1 | N[C@H](CO)CSC(c1ccccc1)(c1ccccc1)c1ccccc1 [Compound 1.1] | – | – | – | – | IC50 ([1]; Homo sapiens, HeLa, 4 h): 580 nM
2 | COc1ccc(C(SC[C@@H](N)CO)(c2ccccc2)c2ccccc2)cc1 [Compound 1.3] | – | – | – | – | IC50 ([1]; Homo sapiens, HeLa, 4 h): 200 nM
3 | N[C@@H](CSC(c1ccccc1)(c1ccccc1)c1ccccc1)C(=O)O [Compound 2.5, (R)-2-amino-3-(tritylthio)propanoic acid] | 660 nM | – | – | – | GI50 (OVCAR-5): 100 µM; GI50 (NCI-H522): 500 nM; GI50 (UO-31): 100 µM; GI50 (SK-OV-3): 100 µM; GI50 (HCT-116): 500 nM; GI50 (U251): 1000 nM; GI50 (NCI-H226): 100 µM; GI50 (SF-295): 500 nM
4 | N[C@@H](CSCC1c2ccccc2-c2ccccc21)C(=O)O [Compound 2.7, (R)-3-(((9H-fluoren-9-yl)methyl)thio)-2-aminopropanoic acid] | > 100000 nM | no measurable activity | > 100000 nM | no measurable activity | –
5 | N[C@@H](COC(c1ccccc1)(c1ccccc1)c1ccccc1)C(=O)O [Compound 2.8, (S)-2-amino-3-(trityloxy)propanoic acid] | 850 nM | – | 760 nM | – | –
6 | N[C@@H](CSC(c1ccccc1)c1ccccc1)C(=O)O [Compound 2.9, (R)-2-amino-3-(benzhydrylthio)propanoic acid] | > 100000 nM | no measurable activity | > 100000 nM | no measurable activity | –
7 | N[C@@H](CSC1c2ccccc2-c2ccccc21)C(=O)O [Compound 3.0, (R)-3-((9H-fluoren-9-yl)thio)-2-aminopropanoic acid] | > 100000 nM | no measurable activity | > 100000 nM | no measurable activity | –
8 | CC(=O)N[C@@H](CSC(c1ccccc1)(c1ccccc1)c1ccccc1)C(=O)O [Compound 3.1, (R)-2-acetamido-3-(tritylthio)propanoic acid] | > 100000 nM | no measurable activity | > 100000 nM | no measurable activity | –
9 | COC(=O)[C@@H](N)CSC(c1ccccc1)(c1ccccc1)c1ccccc1 [Compound 3.2, (R)-methyl 2-amino-3-(tritylthio)propanoate] | 920 nM | – | 510 nM | – | –
10 | NC(=O)[C@@H](N)CSC(c1ccccc1)(c1ccccc1)c1ccccc1 [Compound 3.3, (R)-2-amino-3-(tritylthio)propanamide] | 670 nM | – | 540 nM | – | –
11 | N[C@@H](CSC(c1ccccc1)(c1ccccc1)c1cccnc1)C(=O)O [Compound 3.4, (R)-2-amino-3-((diphenyl(pyridin-3-yl)methyl)thio)propanoic acid] | > 100000 nM | no measurable activity | > 100000 nM | no measurable activity | –
12 | C#CCNC(=O)[C@@H](N)CSC(c1ccccc1)(c1ccccc1)c1ccccc1 [Compound 3.5, (R)-2-amino-N-(prop-2-yn-1-yl)-3-(tritylthio)propanamide] | 760 nM | – | 490 nM | – | –
13 | CC(=O)N[C@@H](CSC(c1ccccc1)(c1ccccc1)c1ccccc1)C(N)=O [Compound 3.6, (R)-2-acetamido-3-(tritylthio)propanamide] | > 100000 nM | no measurable activity | > 100000 nM | no measurable activity | –
14 | CCCCNC(=O)[C@@H](N)CSC(c1ccccc1)(c1ccccc1)c1ccccc1 [Compound 3.8, (R)-2-amino-N-butyl-3-(tritylthio)propanamide] | 680 nM | – | 560 nM | – | –
15 | C#CCNC(=O)[C@@H](N)CSC(c1ccccc1)(c1ccccc1)c1ccc(OC)cc1 [Compound 4.0] | 440 nM | – | 310 nM | – | –
16 | COc1ccc(C(SC[C@H](N)C(=O)NCCOCCN)(c2ccccc2)c2ccccc2)cc1 [Compound 4.2, (R)-2-amino-N-(2-(2-aminoethoxy)ethyl)-3-(((4-methoxyphenyl)diphenylmethyl)thio)propanamide] | 540 nM | – | 280 nM | – | –
17 | (R)-2-amino-3-(((4-methoxyphenyl)diphenylmethyl)thio)propanamide [Compound 3.9] | – | no measurable activity | – | no measurable activity | IC50 ([1]; HeLa cells treated with analog for 4 hours, scored for bipolar vs monopolar spindle formation): > 100000 nM
